The values below come from EP0197829A1, “5H-pyrido[3',4':4,5]pyrrolo[3,2-c]pyridine derivatives, process for their preparation and their antitunour activity” (SANOFI, priority 1985, dated 1986).

For one data set, the system named is mélanome B 16. In words: B 16 melanoma test in vivo. The conditions noted are these: for Survivants: at day J 60. Further details: species or system souris hybrides BDF1; Jour médian de survie: unit not given here. From the text:
L'activité antitumorale a été testée in vivo sur différentes tumeurs selon le protocole général suivant : Toutes les souris mâles ou femelles sont inoculées par voie intrapéritonéale au jour Jo avec une quantité déterminée de cellules tumorales viables, variable selon la tumeur.
Elles sont ensuite réparties en différents lots. Chaque lot correspondant aux animaux traités par le produit à tester à une dose déterminée est composé de lO souris. Dans ce cas, le produit à tester est dissous dans l'eau distillée et il est administré, pendant n jours (J1-Jn) variables selon le protocole choisi, par voie intrapéritonéale à raison de 0,1 ml par lO g de poids des souris traitées, les doses du produit administré étant précisées dans les tableaux ci-dessous.
Le lot "Contrôle négatif", correspondant aux animaux qui ne sont pas traités par un produit, comprend 2 √N animaux, N étant égal au nombre total de souris traitées par un produit.
Enfin, tous lés essais sont conduits parallèlement à l'étude d'un lot appelé "Contrôle positif" de 10 animaux qui est traité par une molécule active, variable selon le protocole choisi, dans les mêmes conditions que les lots traités par le produit à tester, afin de valider l'essai.
L'activité antitumorale est évaluée en considérant l'augmentation du temps de survie des animaux traités par rapport à celui des animaux du lot "Contrôle négatif" selon la formule : • Jour médian de survie des animaux traités à une T/C = dose donnée de produit x 100 • Jour médian de survie des animaux "Contrôle négatif"
Un composé est considéré comme étant actif lorsque la valeur du rapport T/C est égale ou supérieure à 125 % selon le protocole retenu. Il est toxique lorsque cette valeur est égale ou inférieure à 85 %. Le produit est également considéré comme toxique lorsque la variation pondérale, exprimée en grammes et calculée par la formule : Poids moyen du lot mesuré au jour 5 - poids moyen du même lot au jour 1, est égale ou inférieure à -4g . a) Test de la leucémie P 388 (GERAN et al., Cancer Chemother, 1972, 2, 07-57).
c) Test du mélanome B 16 (GERAN et al., Cancer Chemother, 1972, 2, 07-57).
Les essais sont effectués avec des souris hybrides BDF1 inoculées avec O,5 ml d'un homogénat de mélanome B 16 réalisé à partir de 1 g de tumeur dans 10 ml de sérum physiologique. Le composé à tester est administré pendant 9 jours (J1-J9). Le contrôle positif du test est le Cis- platine administré dans les mêmes conditions. Le nombre d'animaux survivants est évalué au jour J 60. Un composé est considéré comme étant actif lorsque le rapport T/C est supérieur ou égal à 125 %.

A further data set in a line: in vivo. Further details: species or system souris. The conditions noted are these: mouse, ip, 100 mg/kg. As to the method: Ainsi, l'administration à des souris hybrides CDF1 saines, en une injection unique par la voie intrapéritonéale, de doses croissantes des composés à tester (5 mg, 10 mg, 20 mg, 40 mg/kg) a permis de constater que, à ces doses, les produits étaient parfaitement tolérés puisque le taux de survivants était de 100 p. 100.
Dans les mêmes conditions, administrés à des souris BDF1 saines, les taux de survivants étaient de 100 p. 100 jusqu'à 100 mg/kg pour les dérivés 1, 3 et 9 et jusqu'à 200 mg/kg pour les dérivés 2 et 8.

Data set [1] has as its system lignée tumorale leucémie L 1210. Kind of data set: In vitro cytotoxicity on L 1210 leukemia cell culture. As to conditions: Mus musculus, L1210; concentration inhibiting cell proliferation by 50 p. 100, after 48 h contact; read-out: ID 50 (the source's name). Format: cell-based. As to the method: 1) In vitro : (PAOLETTI et al., Chem. Biol. Interaction, 1979, 25, 45-58).
L'activité cytotoxique des composés de l'invention a été évaluée par des essais in vitro. Ces essais consistent à ajouter des concentrations croissantes du composé à tester à une culture cellulaire de la lignée tumorale leucémie L 1210 en phase exponentielle de croissance. Les cellules sont incubées à 37°C dans une étuve à C02 et comptées toutes les 24 heures. Le calcul de l'ID 50 (concentration du produit exprimée en micromole 1^-1 qui inhibe la prolifération cellulaire à 50 p. 100) est effectué après 48 heures de contact. Ainsi déterminées, les ID 50 des composés de l'invention sont rassemblées dans le tableau I ci-après : […]

Structures are written as SMILES.

`Cc1cnc(NCCCN(C)C)c2c1[nH]c1ccncc12` [Dérivé N° 3, [(diméthylamino-3 propyl-1)amino]-1 méthyl-4 5-H pyrido[3',4':4,5]pyrrolo[3,2-c]pyridine]: in the data set on mélanome B 16 (5 mg/kg i.p. J1-J9), the “Jour médian de survie” value amounted to 29, the T/C % was 125% and the Survivants was 0. Moreover, in the data set with mélanome B 16 (20 mg/kg i.p. J1-J9), the “Jour médian de survie” value is reported as 29,3, the T/C % is on record as 126% and the Survivants was determined as 0. In the data set on mélanome B 16 (40 mg/kg i.p. J1-J9), the “Jour médian de survie” value is recorded as 9,8, the T/C % turned out to be 42% and the Survivants was found to be 0. In the data set “in vivo”, this compound displayed a survival of 100%.
On to `CCN(CC)CCCNc1ncc(C)c2c1c1cnccc1n2C` [Dérivé N° 4, [(diéthylamino-3 propyl-1)amino]-1 diméthyl-4,5 5-H pyrido[3',4':4,5]pyrrolo[3,2-c]pyridine], for which the “Jour médian de survie” value in the data set on mélanome B 16 (20 mg/kg i.p. J1-J9) is on record as 28; with mélanome B 16 (30 mg/kg i.p. J1-J9), 43,0; in the data set with mélanome B 16 (40 mg/kg i.p. J1-J9), 53,0; in the data set on mélanome B 16 (50 mg/kg i.p. J1-J9), 39,0; in the data set on mélanome B 16 (60 mg/kg i.p. J1-J9), 24,0. In addition, the T/C % in the data set on mélanome B 16 (20 mg/kg i.p. J1-J9) came out at 99%; in the data set with mélanome B 16 (30 mg/kg i.p. J1-J9) it was 152%; in the data set on mélanome B 16 (40 mg/kg i.p. J1-J9), 188%; in the data set on mélanome B 16 (50 mg/kg i.p. J1-J9), 138%; with mélanome B 16 (60 mg/kg i.p. J1-J9) it was 85%. Moreover, the Survivants was found to be 0 with mélanome B 16 (20 mg/kg i.p. J1-J9); 4 in the data set on mélanome B 16 (30 mg/kg i.p. J1-J9); 5 in the data set with mélanome B 16 (40 mg/kg i.p. J1-J9); 0 in the data set on mélanome B 16 (50 mg/kg i.p. J1-J9); 0 in the data set on mélanome B 16 (60 mg/kg i.p. J1-J9). In addition, the IC50 in data set [1] was determined as 130 nM.
